Patent publication US12077503B2, “Substituted cyclic amides and their use as herbicides” (FMC CORPORATION, priority 2015, dated 2024)

Experiments:
Assay type in all cases: in vivo
[1] = system: giant foxtail (Setaria faberi); assay: Test G Post-Emergence Protocol; details: Setaria faberi, post-emergence, 312 h, read-out: Foxtail, Giant damage rating; for pest or weed control at 15.625 g/ha: 15.625 g ai/ha, evaluated after 13 days (100=total damage to plant; 0=no damage to plant); for pest or weed control at 62.5 g/ha: 62.5 g ai/ha; for pest or weed control at 62.5 g/ha / pest or weed control at 250 g/ha: evaluated after 13 days, 100=total damage to plant, 0=no damage to plant; for pest or weed control at 250 g/ha: 250 g ai/ha
Method in brief: (§1)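 Pot-grown seedlings, 8 days old, raised in a glasshouse at 24/16 °C day/night with 14 h light and 65% humidity, were sprayed post-emergence with test compound in acetone/water (50:50) plus 0.5% Tween 20 at 15.625, 62.5 or 250 g/ha. Damage was scored visually 13 days later on a 0–100 scale (100 = total damage).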

[2] = system: corn (Zea mays); assay: Test G Post-Emergence Protocol; details: Zea mays, post-emergence, 312 h, read-out: Corn damage rating; for plant injury at 15.625 g/ha: 15.625 g ai/ha, evaluated after 13 days (100=total damage to plant; 0=no damage to plant); for plant injury at 62.5 g/ha: 62.5 g ai/ha; for plant injury at 62.5 g/ha / plant injury at 250 g/ha: evaluated after 13 days, 100=total damage to plant, 0=no damage to plant; for plant injury at 250 g/ha: 250 g ai/ha
Method in brief: as §1

[3] = system: barnyardgrass (Echinochloa crus-galli); assay: Test G Post-Emergence Protocol; details: Echinochloa crus-galli, post-emergence, 312 h, read-out: Barnyardgrass damage rating; for pest or weed control at 15.625 g/ha: 15.625 g ai/ha, evaluated after 13 days (100=total damage to plant; 0=no damage to plant); for pest or weed control at 62.5 g/ha: 62.5 g ai/ha; for pest or weed control at 62.5 g/ha / pest or weed control at 250 g/ha: evaluated after 13 days, 100=total damage to plant, 0=no damage to plant; for pest or weed control at 250 g/ha: 250 g ai/ha
Method in brief: as §1

[4] = system: ivy-leaved morning glory (Ipomoea hederacea); assay: Test G Post-Emergence Protocol; details: Ipomoea, post-emergence, 312 h, read-out: Morningglory, Ivy-leaved damage rating; for pest or weed control at 15.625 g/ha: 15.625 g ai/ha, evaluated after 13 days (100=total damage to plant; 0=no damage to plant); for pest or weed control at 62.5 g/ha: 62.5 g ai/ha; for pest or weed control at 62.5 g/ha / pest or weed control at 250 g/ha: evaluated after 13 days, 100=total damage to plant, 0=no damage to plant; for pest or weed control at 250 g/ha: 250 g ai/ha
Method in brief: as §1

[5] = system: redroot pigweed (Amaranthus retroflexus); assay: Test G Post-Emergence Protocol; details: Amaranthus retroflexus, post-emergence, 312 h, read-out: Pigweed, Redroot damage rating; for pest or weed control at 15.625 g/ha: 15.625 g ai/ha, evaluated after 13 days (100=total damage to plant; 0=no damage to plant); for pest or weed control at 62.5 g/ha: 62.5 g ai/ha; for pest or weed control at 62.5 g/ha / pest or weed control at 250 g/ha: evaluated after 13 days, 100=total damage to plant, 0=no damage to plant; for pest or weed control at 250 g/ha: 250 g ai/ha
Method in brief: as §1

[6] = system: velvetleaf (Abutilon theophrasti); assay: Test G Post-Emergence Protocol; details: Abutilon theophrasti, post-emergence, 312 h, read-out: Velvetleaf damage rating; for pest or weed control at 15.625 g/ha: 15.625 g ai/ha, evaluated after 13 days (100=total damage to plant; 0=no damage to plant); for pest or weed control at 62.5 g/ha: 62.5 g ai/ha; for pest or weed control at 62.5 g/ha / pest or weed control at 250 g/ha: evaluated after 13 days, 100=total damage to plant, 0=no damage to plant; for pest or weed control at 250 g/ha: 250 g ai/ha
Method in brief: as §1

[7] = system: giant foxtail (Setaria faberi); assay: Test G Pre-Emergence Protocol; details: Setaria faberi, pre-emergence, 312 h, evaluated after 13 days; for pest or weed control at 15.625 g/ha: 15.625 g ai/ha; for pest or weed control at 15.625 g/ha / pest or weed control at 250 g/ha: read-out: Foxtail, Giant damage rating (100=total damage to plant; 0=no damage to plant); for pest or weed control at 62.5 g/ha: 62.5 g ai/ha, 100=total damage to plant, 0=no damage to plant, read-out: Foxtail, Giant damage rating; for pest or weed control at 250 g/ha: 250 g ai/ha
Method in brief: (§2)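 One day after sowing, pots are treated with a spray of test compound formulated in acetone/water 50:50 plus 0.5% Tween 20, giving 15.625, 62.5 or 250 g/ha. Evaluation on a 0–100 damage scale follows 13 days of glasshouse growth.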

[8] = system: corn (Zea mays); assay: Test G Pre-Emergence Protocol; details: Zea mays, pre-emergence, 312 h, evaluated after 13 days; for plant injury at 15.625 g/ha: 15.625 g ai/ha; for plant injury at 15.625 g/ha / plant injury at 250 g/ha: read-out: Corn damage rating (100=total damage to plant; 0=no damage to plant); for plant injury at 62.5 g/ha: 62.5 g ai/ha, 100=total damage to plant, 0=no damage to plant, read-out: Corn damage rating; for plant injury at 250 g/ha: 250 g ai/ha
Method in brief: as §2

[9] = system: barnyardgrass (Echinochloa crus-galli); assay: Test G Pre-Emergence Protocol; details: Echinochloa crus-galli, pre-emergence, 312 h, evaluated after 13 days; for pest or weed control at 15.625 g/ha: 15.625 g ai/ha; for pest or weed control at 15.625 g/ha / pest or weed control at 250 g/ha: read-out: Barnyardgrass damage rating (100=total damage to plant; 0=no damage to plant); for pest or weed control at 62.5 g/ha: 62.5 g ai/ha, 100=total damage to plant, 0=no damage to plant, read-out: Barnyardgrass damage rating; for pest or weed control at 250 g/ha: 250 g ai/ha
Method in brief: as §2

[10] = system: ivy-leaved morning glory (Ipomoea hederacea); assay: Test G Pre-Emergence Protocol; details: Ipomoea, pre-emergence, 312 h, evaluated after 13 days; for pest or weed control at 15.625 g/ha: 15.625 g ai/ha; for pest or weed control at 15.625 g/ha / pest or weed control at 250 g/ha: read-out: Morningglory, Ivy-leaved damage rating (100=total damage to plant; 0=no damage to plant); for pest or weed control at 62.5 g/ha: 62.5 g ai/ha, 100=total damage to plant, 0=no damage to plant, read-out: Morningglory, Ivy-leaved damage rating; for pest or weed control at 250 g/ha: 250 g ai/ha
Method in brief: as §2

[11] = system: redroot pigweed (Amaranthus retroflexus); assay: Test G Pre-Emergence Protocol; details: Amaranthus retroflexus, pre-emergence, 312 h, evaluated after 13 days; for pest or weed control at 15.625 g/ha: 15.625 g ai/ha; for pest or weed control at 15.625 g/ha / pest or weed control at 250 g/ha: read-out: Pigweed, Redroot damage rating (100=total damage to plant; 0=no damage to plant); for pest or weed control at 62.5 g/ha: 62.5 g ai/ha, 100=total damage to plant, 0=no damage to plant, read-out: Pigweed, Redroot damage rating; for pest or weed control at 250 g/ha: 250 g ai/ha
Method in brief: as §2

[12] = system: velvetleaf (Abutilon theophrasti); assay: Test G Pre-Emergence Protocol; details: Abutilon theophrasti, pre-emergence, 312 h, evaluated after 13 days; for pest or weed control at 15.625 g/ha: 15.625 g ai/ha; for pest or weed control at 15.625 g/ha / pest or weed control at 250 g/ha: read-out: Velvetleaf damage rating (100=total damage to plant; 0=no damage to plant); for pest or weed control at 62.5 g/ha: 62.5 g ai/ha, 100=total damage to plant, 0=no damage to plant, read-out: Velvetleaf damage rating; for pest or weed control at 250 g/ha: 250 g ai/ha
Method in brief: as §2

Row | Structure (SMILES) | pest or weed control at 15.625 g/ha [1] | pest or weed control at 62.5 g/ha [1] | pest or weed control at 250 g/ha [1] | plant injury at 15.625 g/ha [2] | plant injury at 62.5 g/ha [2] | plant injury at 250 g/ha [2] | pest or weed control at 15.625 g/ha [3] | pest or weed control at 62.5 g/ha [3] | pest or weed control at 250 g/ha [3] | pest or weed control at 15.625 g/ha [4] | pest or weed control at 62.5 g/ha [4] | pest or weed control at 250 g/ha [4] | pest or weed control at 15.625 g/ha [5] | pest or weed control at 62.5 g/ha [5] | pest or weed control at 250 g/ha [5] | pest or weed control at 15.625 g/ha [6] | pest or weed control at 62.5 g/ha [6] | pest or weed control at 250 g/ha [6] | pest or weed control at 15.625 g/ha [7] | pest or weed control at 62.5 g/ha [7] | other results
1 | Cc1cc([C@H]2CN(C)C(=O)[C@@H]2C(=O)Nc2cccc(F)c2F)cnn1 (racemic) [Compound 1662] | 0% | 0% | 0% | 0% | 0% | 0% | 0% | 0% | 0% | 0% | 0% | 0% | 0% | 0% | 0% | 0% | 0% | 0% | 0% | 0% | pest or weed control at 250 g/ha [7]: 0%; plant injury at 15.625 g/ha [8]: 0%; plant injury at 62.5 g/ha [8]: 0%; plant injury at 250 g/ha [8]: 0%; pest or weed control at 15.625 g/ha [9]: 0%; pest or weed control at 62.5 g/ha [9]: 0%; pest or weed control at 250 g/ha [9]: 0%; pest or weed control at 15.625 g/ha [10]: 0%; pest or weed control at 62.5 g/ha [10]: 0%; pest or weed control at 250 g/ha [10]: 0%; pest or weed control at 15.625 g/ha [11]: 0%; pest or weed control at 62.5 g/ha [11]: 0%; pest or weed control at 250 g/ha [11]: 0%; pest or weed control at 15.625 g/ha [12]: 0%; pest or weed control at 62.5 g/ha [12]: 0%; pest or weed control at 250 g/ha [12]: 0%
2 | CN1CC(c2cc(F)cc(OCC(F)(F)F)c2)C(C(=O)Nc2cccc(F)c2F)C1=O (stereo not drawn) [Compound 1698] | 80% | 80% | 80% | 20% | 70% | 70% | 60% | 80% | 80% | 10% | 70% | 70% | 20% | 30% | 60% | 0% | 10% | 50% | 70% | 70% | pest or weed control at 250 g/ha [7]: 90%; plant injury at 15.625 g/ha [8]: 0%; plant injury at 62.5 g/ha [8]: 30%; plant injury at 250 g/ha [8]: 70%; pest or weed control at 15.625 g/ha [9]: 60%; pest or weed control at 62.5 g/ha [9]: 70%; pest or weed control at 250 g/ha [9]: 80%; pest or weed control at 15.625 g/ha [10]: 10%; pest or weed control at 62.5 g/ha [10]: 0%; pest or weed control at 250 g/ha [10]: 20%; pest or weed control at 15.625 g/ha [11]: 0%; pest or weed control at 62.5 g/ha [11]: 10%; pest or weed control at 250 g/ha [11]: 40%; pest or weed control at 15.625 g/ha [12]: 0%; pest or weed control at 62.5 g/ha [12]: 10%; pest or weed control at 250 g/ha [12]: 20%
3 | CN1C[C@H](c2cccc(C(F)F)c2)[C@@H](C(=O)Nc2cnccc2C(F)(F)F)C1=O (racemic) [Compound 1742] | 70% | 80% | 80% | 0% | 0% | 70% | 0% | 70% | 80% | 0% | 0% | 40% | 0% | 20% | 30% | 0% | 10% | 20% | 50% | 80% | pest or weed control at 250 g/ha [7]: 90%; plant injury at 15.625 g/ha [8]: 0%; plant injury at 62.5 g/ha [8]: 0%; plant injury at 250 g/ha [8]: 30%; pest or weed control at 15.625 g/ha [9]: 0%; pest or weed control at 62.5 g/ha [9]: 0%; pest or weed control at 250 g/ha [9]: 80%; pest or weed control at 15.625 g/ha [10]: 0%; pest or weed control at 62.5 g/ha [10]: 0%; pest or weed control at 250 g/ha [10]: 10%; pest or weed control at 15.625 g/ha [11]: 0%; pest or weed control at 62.5 g/ha [11]: 10%; pest or weed control at 250 g/ha [11]: 20%; pest or weed control at 15.625 g/ha [12]: 0%; pest or weed control at 62.5 g/ha [12]: 0%; pest or weed control at 250 g/ha [12]: 30%
